Measured values reported in ChEMBL document CHEMBL3407349, “The discovery of Polo-like kinase 4 inhibitors: identification of (1R,2S).2-(3-((E).4-(((cis).2,6-dimethylmorpholino)methyl)styryl). 1H.indazol-6-yl)-5'-methoxyspiro[cyclopropane-1,3'-indolin]-2'-one (CFI-400945) as a potent, orally active antitumor agent” (J Med Chem, 2015).
pIC50: −log10 of the molar value.

What was measured:
MDA-MB-468 [1] = test: Growth inhibition of human MDA-MB-468 cells after 5 days by SRB assay; assay type: functional; conditions: Homo sapiens, MDA-MB-468, 120 h
MCF7 = test: Growth inhibition of human MCF7 cells after 5 days by SRB assay; assay type: functional; conditions: Homo sapiens, MCF7, 120 h
HCC1954 = test: Growth inhibition of human HCC1954 cells after 5 days by SRB assay; assay type: functional; conditions: Homo sapiens, HCC1954, 120 h
MDA-MB-231 = test: Growth inhibition of human MDA-MB-231 cells after 5 days by SRB assay; assay type: functional; conditions: Homo sapiens, MDA-MB-231, 120 h
[2] = Growth inhibition of human HMEC cells after 5 days by SRB assay; assay type: cell-based; conditions: HMEC cells
Cytochrome P450 1A2 = target: T1, Cytochrome P450 1A2 (Homo sapiens, UniProt P05177); test: Inhibition of CYP1A2 (unknown origin) by fluorescence assay; assay type: ADME
T1 sequence (P05177 whole entry): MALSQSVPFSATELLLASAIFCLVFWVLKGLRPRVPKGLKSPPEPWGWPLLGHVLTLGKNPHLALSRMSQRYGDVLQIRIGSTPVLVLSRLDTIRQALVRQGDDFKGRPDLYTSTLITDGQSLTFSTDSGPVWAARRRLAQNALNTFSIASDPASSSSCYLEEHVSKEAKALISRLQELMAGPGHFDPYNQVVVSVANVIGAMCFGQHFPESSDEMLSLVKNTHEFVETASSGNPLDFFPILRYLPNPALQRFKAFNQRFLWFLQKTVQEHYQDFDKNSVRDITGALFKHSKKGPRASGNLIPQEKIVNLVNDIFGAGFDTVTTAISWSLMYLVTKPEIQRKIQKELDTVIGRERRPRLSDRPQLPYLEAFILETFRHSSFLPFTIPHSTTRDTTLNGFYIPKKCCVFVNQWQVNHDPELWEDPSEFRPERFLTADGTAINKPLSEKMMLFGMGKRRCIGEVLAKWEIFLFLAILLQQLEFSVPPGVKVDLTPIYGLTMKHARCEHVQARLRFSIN

Cytochrome P450 2D6 = Cytochrome P450 2D6 (Homo sapiens, UniProt P10635); test: Inhibition of CYP2D6 (unknown origin) by fluorescence assay; assay type: ADME
Cytochrome P450 2D6, sequence (P10635 whole entry): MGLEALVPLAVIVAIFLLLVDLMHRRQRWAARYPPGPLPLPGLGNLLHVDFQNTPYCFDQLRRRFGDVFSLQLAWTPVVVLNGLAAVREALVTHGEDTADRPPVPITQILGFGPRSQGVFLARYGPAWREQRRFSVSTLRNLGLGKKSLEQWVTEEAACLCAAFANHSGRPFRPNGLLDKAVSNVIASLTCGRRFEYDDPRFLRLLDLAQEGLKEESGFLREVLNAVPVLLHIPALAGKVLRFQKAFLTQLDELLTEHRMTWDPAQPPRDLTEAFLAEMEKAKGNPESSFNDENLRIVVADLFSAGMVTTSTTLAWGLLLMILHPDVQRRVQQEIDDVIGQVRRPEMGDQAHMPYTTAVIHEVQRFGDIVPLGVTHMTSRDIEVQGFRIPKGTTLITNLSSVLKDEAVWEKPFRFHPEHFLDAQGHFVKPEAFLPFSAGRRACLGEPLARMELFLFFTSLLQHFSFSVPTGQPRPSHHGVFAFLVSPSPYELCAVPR

Cytochrome P450 2C9 = Cytochrome P450 2C9 (Homo sapiens, UniProt P11712); test: Inhibition of CYP2C9 (unknown origin) by fluorescence assay
Cytochrome P450 2C9, sequence (P11712 whole entry): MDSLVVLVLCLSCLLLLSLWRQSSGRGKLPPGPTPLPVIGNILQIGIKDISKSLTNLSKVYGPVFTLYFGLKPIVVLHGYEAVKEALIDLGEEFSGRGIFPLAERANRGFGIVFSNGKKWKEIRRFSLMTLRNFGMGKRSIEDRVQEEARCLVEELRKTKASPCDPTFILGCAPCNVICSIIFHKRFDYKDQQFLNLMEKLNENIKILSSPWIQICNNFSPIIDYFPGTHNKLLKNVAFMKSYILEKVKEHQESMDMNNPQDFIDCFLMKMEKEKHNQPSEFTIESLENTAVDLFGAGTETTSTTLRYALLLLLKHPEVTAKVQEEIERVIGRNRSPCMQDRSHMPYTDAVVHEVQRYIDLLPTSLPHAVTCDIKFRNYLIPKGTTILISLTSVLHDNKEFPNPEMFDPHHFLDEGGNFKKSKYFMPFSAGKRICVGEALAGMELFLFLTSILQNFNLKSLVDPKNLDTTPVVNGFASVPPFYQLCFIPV

Cytochrome P450 2C19 = Cytochrome P450 2C19 (Homo sapiens, UniProt P33261); test: Inhibition of CYP2C19 (unknown origin) by fluorescence assay
Cytochrome P450 2C19, sequence (P33261 whole entry): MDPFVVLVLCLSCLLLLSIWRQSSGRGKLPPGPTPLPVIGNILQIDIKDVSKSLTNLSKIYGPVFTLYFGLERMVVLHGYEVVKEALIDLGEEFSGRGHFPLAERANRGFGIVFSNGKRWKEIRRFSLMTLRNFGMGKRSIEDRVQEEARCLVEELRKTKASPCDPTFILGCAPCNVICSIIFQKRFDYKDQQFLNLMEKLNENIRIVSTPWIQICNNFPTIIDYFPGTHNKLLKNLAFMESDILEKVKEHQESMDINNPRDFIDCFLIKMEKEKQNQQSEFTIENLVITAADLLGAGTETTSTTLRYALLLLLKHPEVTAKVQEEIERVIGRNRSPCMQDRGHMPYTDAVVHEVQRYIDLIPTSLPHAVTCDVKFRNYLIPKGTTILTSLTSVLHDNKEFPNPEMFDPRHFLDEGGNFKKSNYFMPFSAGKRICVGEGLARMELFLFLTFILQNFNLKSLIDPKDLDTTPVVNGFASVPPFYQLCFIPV

Cytochrome P450 3A4 [3] = target: T2, Cytochrome P450 3A4 (Homo sapiens, UniProt P08684); test: Inhibition of CYP3A4 (unknown origin) using DBF as substrate by fluorescence assay
T2 sequence (P08684 whole entry): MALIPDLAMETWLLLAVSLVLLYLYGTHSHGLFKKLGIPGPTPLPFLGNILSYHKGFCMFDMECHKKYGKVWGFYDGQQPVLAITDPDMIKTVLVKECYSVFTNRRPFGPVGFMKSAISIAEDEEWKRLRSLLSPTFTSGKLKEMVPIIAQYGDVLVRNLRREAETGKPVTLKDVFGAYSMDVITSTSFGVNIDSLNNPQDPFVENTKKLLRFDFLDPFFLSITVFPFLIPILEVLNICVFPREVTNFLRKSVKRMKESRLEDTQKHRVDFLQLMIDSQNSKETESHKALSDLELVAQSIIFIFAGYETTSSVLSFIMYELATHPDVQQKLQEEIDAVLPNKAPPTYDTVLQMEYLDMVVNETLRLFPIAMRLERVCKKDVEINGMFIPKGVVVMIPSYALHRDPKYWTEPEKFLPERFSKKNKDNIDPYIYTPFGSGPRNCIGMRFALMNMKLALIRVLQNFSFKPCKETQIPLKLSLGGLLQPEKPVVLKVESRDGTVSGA

Cytochrome P450 3A4 [4] = target: T2, Cytochrome P450 3A4; test: Inhibition of CYP3A4 (unknown origin) using BFC as substrate by fluorescence assay
[5] = Half life in mouse liver microsomes; conditions: microsomes
[6] = Half life in rat liver microsomes; conditions: microsomes
[7] = Half life in dog liver microsomes; conditions: microsomes
[8] = Half life in human liver microsomes; conditions: microsomes
[9] = Cmax in athymic CD1 nude mouse at 25 mg/kg, po by LC/MS/MS analysis; assay type: ADME, organism-based; design: dose 25 mg/kg, route oral; conditions: in vivo
[10] = AUC in athymic CD1 nude mouse at 25 mg/kg, po by LC/MS/MS analysis; assay type: ADME, organism-based; design: dose 25 mg/kg, route oral; conditions: plasma
[11] = Half life in Sprague-Dawley rat at 1 mg/kg, iv; assay type: ADME, organism-based; design: dose 1 mg/kg, route intravenous; conditions: in vivo
[12] = AUC(infinity) in Sprague-Dawley rat at 1 mg/kg, iv; assay type: ADME, organism-based; design: time infinity, dose 1 mg/kg, route intravenous; conditions: plasma
[13] = AUC(infinity) in Sprague-Dawley rat at 5 mg/kg, po; assay type: ADME, organism-based; design: dose 5 mg/kg, route oral, time infinity; conditions: plasma
[14] = Oral bioavailability in Sprague-Dawley rat at 5 mg/kg; assay type: ADME, organism-based; conditions: in vivo
[15] = Half life in beagle dog at 1 mg/kg, iv; assay type: ADME, organism-based, Canis lupus familiaris; design: dose 1 mg/kg, route intravenous; conditions: in vivo
[16] = AUC(infinity) in beagle dog at 1 mg/kg, iv; assay type: ADME, organism-based, Canis lupus familiaris; design: time infinity, dose 1 mg/kg, route intravenous; conditions: plasma
[17] = AUC(infinity) in beagle dog at 5 mg/kg, po; assay type: ADME, organism-based, Canis lupus familiaris; design: time infinity, dose 5 mg/kg, route oral; conditions: plasma
[18] = Oral bioavailability in beagle dog at 5 mg/kg; assay type: ADME, organism-based, Canis lupus familiaris; conditions: in vivo
[19] = Growth inhibition of human SKBR3 cells after 5 days by SRB assay; assay type: functional; conditions: SK-BR-3, 120 h
[20] = Growth inhibition of human CAL51 cells after 5 days by SRB assay; assay type: functional; conditions: CAL-51, 120 h
[21] = Growth inhibition of human BT20 cells after 5 days by SRB assay; assay type: functional; conditions: BT-20, 120 h
A549 [22] = test: Growth inhibition of human A549 cells after 5 days by SRB assay; assay type: functional; conditions: A549, 120 h
[23] = Growth inhibition of human OVCAR3 cells after 5 days by SRB assay; assay type: functional; conditions: OVCAR-3, 120 h
SW-620 = test: Growth inhibition of human SW620 cells after 5 days by SRB assay; assay type: functional; conditions: SW-620, 120 h
[24] = Growth inhibition of human COLO205 cells after 5 days by SRB assay; assay type: functional; conditions: COLO 205, 120 h
[25] = Growth inhibition of human HCT116 cells after 5 days by SRB assay; assay type: functional; conditions: HCT-116, 120 h
MDA-MB-468 [26] = test: Antitumor activity against human MDA-MB-468 cells xenografted in CB-17 SCID mouse assessed as tumor growth inhibition at 3 mg/kg, po qd administered for 21 days; assay type: functional; conditions: MDA-MB-468, 504 h, read-out: TGI
MDA-MB-468 [27] = test: Antitumor activity against human MDA-MB-468 cells xenografted in CB-17 SCID mouse assessed as tumor growth inhibition at 9.4 mg/kg, po qd administered for 21 days; assay type: functional; conditions: MDA-MB-468, 504 h, read-out: TGI
[28] = Antitumor activity against human SW620 cells xenografted in CB-17 SCID mouse assessed as tumor growth inhibition at 3 mg/kg, po qd administered for 21 days; assay type: functional; conditions: SW-620, 504 h, read-out: TGI
[29] = Antitumor activity against human SW620 cells xenografted in CB-17 SCID mouse assessed as tumor growth inhibition at 9.4 mg/kg, po qd administered for 21 days; assay type: functional; conditions: SW-620, 504 h, read-out: TGI
A549 [30] = test: Antitumor activity against human A549 cells xenografted in CB-17 SCID mouse assessed as tumor growth inhibition at 3 mg/kg, po qd administered for 21 days; assay type: functional; conditions: A549, 504 h, read-out: TGI
Mus musculus = test: Toxicity in CB-17 SCID mouse xenografted with human A549 cells assessed as death at 9.4 mg/kg, po qd administered for 21 days; assay type: organism-based; design: dose 9.4 mg/kg, route oral; conditions: in vivo, 504 h
[31] = Toxicity in po dosed athymic CD-1 nude mouse xenografted with human HCT116 cells administered qd 1-on/3-off schedule up to day 21; assay type: organism-based, HCT-116; conditions: CD-1 athymic nude, in vivo
[32] = Antitumor activity against human HCT116 cells xenografted in athymic CD-1 nude mouse assessed as tumor growth inhibition at MTD, po qd administered 1-on/3-off schedule up to day 21; assay type: functional, HCT-116

COc1ccc2c(c1)[C@]1(C[C@H]1c1ccc3c(/C=C/c4ccc(CN5CCOCC5)cc4)n[nH]c3c1)C(=O)N2C
GI50 (MDA-MB-468 [1]): < 10 nM
GI50 (MCF7): < 10 nM
GI50 (HCC1954): < 10 nM
GI50 (MDA-MB-231): 20000 nM
GI50 at 120 h [2]: > 30000 nM
inhibition (INH) (Cytochrome P450 1A2): Not Active
inhibition (INH) (Cytochrome P450 2D6): Not Active
pIC50 (Cytochrome P450 2C9): 6.00
pIC50 (Cytochrome P450 2C19): 6.00
pIC50 (Cytochrome P450 3A4 [3]): 5.22
pIC50 (Cytochrome P450 3A4 [4]): 4.70
half-life [5]: 24 min
half-life [6]: 6.4 min
half-life [7]: 13 min
half-life [8]: 37 min
Cmax [9]: 5900 ng/mL
AUC [10]: 17000 ng·h/mL
half-life [11]: 78 min
AUC(0-inf) [12]: 553 ng·h/mL
AUC(0-inf) [13]: 688 ng·h/mL
bioavailability [14]: 25%
half-life [15]: 180 min
AUC(0-inf) [16]: 648 ng·h/mL
AUC(0-inf) [17]: 1030 ng·h/mL
bioavailability [18]: 32%
GI50 [19]: 6500 nM
GI50 [20]: 110 nM
GI50 [21]: 55 nM
GI50 (A549 [22]): 4 nM
GI50 [23]: 7 nM
GI50 (SW-620): 600 nM
GI50 [24]: 7 nM
GI50 [25]: 5 nM
inhibition in vivo at 3 mg/kg (MDA-MB-468 [26]): 61%
inhibition in vivo at 9.4 mg/kg (MDA-MB-468 [27]): 96%
inhibition in vivo at 3 mg/kg [28]: 47%
inhibition in vivo at 9.4 mg/kg [29]: 77%
inhibition in vivo at 3 mg/kg (A549 [30]): 46%
Activity (Mus musculus): Toxic
MTD at 21 days [31]: 39 mg/kg
TGI [32]: 90%
